Test results taken from patent US8895261B2, “Use of fluorescent saccharide-based derivative” (I-Shou University, priority 2012, dated 2014).

Test system: fibroblast 3T3 cells
Assay: Cellular uptake of fluorescent saccharide-based derivative in fibroblast 3T3 cells (fluorescence microscopy)
Assay type: cell-based
Conditions: 100 μl of 0.5 mg/ml added to 3T3 cells, reacting overnight; FIG. 2G
Description: 1. Cultivate the fibroblast 3T3 cells in a DMEM medium (the DMEM medium contains 10% fetal bovine serum, 5 mM pyruvic acid, and antibiotics). The cells are cultivated in an incubator containing 5% CO2.
2. When the cells grow and occupy 80% of the bottom of the culture flask through cell division, suck out the culture medium and wash with 1×PBS, then add 0.05% trypsin to react for 1 minute in order to separate the cells, and add 5 ml culture medium, then centrifuge with […] for 10 minutes.
3. After centrifugation, remove the supernatant, then add 5 ml of culture medium, and evenly mix the cells and the culture medium. Take 30 μl of the cell solution and mix with 270 μl of trypan blue, then take 100 μl and place on a cytometer, and count the cell number using erythrocytomertry.
4. After counting the cells, adjust the cell number to 1×10^4 cells/ml, and take 1 ml of the cells and plant into a 24-well culture plate containing a glass slide, then place the cells in a cell incubator at 37° C. and 5% CO2. Incubate for 1 day, and then add 100 μl of 0.5 mg/ml glucosylglycine. After reacting overnight, wash twice with 1×PBS (10 minutes/turn).
5. Add 4% paraformaldehyde to the culture plate, and place in room temperature for twenty minutes to fix the cells, then remove the paraformaldehyde and wash 3 times with 1×PBS (10 minutes/turn).
6. […]

## O=C(O)CNC1O[C@H](CO)[C@@H](O)[C@H](O)[C@H]1O (stereo partly drawn) [glucosylglycine, D-glucosylglycine]
  cell uptake (cells emit fluorescence after being fed): uptakable by cells
